In PMC10313921, “A living ex vivo platform for functional, personalized brain cancer diagnosis” (Cell Reports Medicine, 2023):

What was measured:
Format in all cases: cell-based, human
[1] = system: MB231Br (breast cancer metastasis to brain); assay: Drug screening of MB231Br tumor foci on OBSCs; details: MB231BR on OBSCs
[2] = system: LN229 (established GBM line); assay: Drug screening of LN229 tumor foci on OBSCs
Procedure: (§1) Tumor cells (0.17 μL, 25,000 cells) were seeded onto OBSCs 2h after slicing, with one tumor seeded in the center of each hemisphere for a total of two tumor foci per OBSC. BSM was changed 24h after slicing. Fluorescence images were taken 0 h, 24 h, and 96 h post-seeding for normalization of tumor size. Bioluminescence readouts were also taken at 0 h, 24 h, and 96 h post seeding for assessment of cell viability. Luciferin was added underneath the culture insert and allowed to incubate for 10 min before bioluminescence measurement on an AMI optical imaging system.
(§2) Tumor cells were seeded onto OBSCs 2h after slicing as described above. One day after tumor seeding, six concentrations of each drug were diluted in the media underneath each culture insert, or XRad was applied using an X-Rad 320 Precision X-ray machine (n = 4 tumor foci per concentration; n ≥ 24 tumor foci per drug per cell line). Three days after treatment, the bioluminescence of live tumor cells was measured using an AMI optical imager (Spectral Instruments) and dose-response curves were generated. Tumor survival was normalized to day one tumor fluorescence and compared to an untreated control group.
(§3) Several weighted parameters were factored into an overall drug sensitivity score.
(§4) For DSS parameters 1–6, therapeutic windows were calculated by comparing OBSC toxicity and tumor response at the doses where tumor kill passed through the DSS parameter (Table S1 and S3). For DSS parameter 7, the therapeutic window was calculated by comparing the slopes through the tumor EC50 and the OBSC tox EC50. For DSS parameter 8, the therapeutic window was calculated by comparing the areas under tumor kill and OBSC tox curves. Normalized therapeutic window ratios for DSS parameters 1–8 within each drug-tumor-OBSC interaction were calculated in the following manner: within each window, values ranged from +1 to −1, where values approaching +1 signify increasing tumor kill relative to normal tissue toxicity, and values approaching −1 indicate agents where tumors remained highly viable while toxicity to the normal OBSC tissue was elevated. DSS parameters 9–11 were determined based on the behavior of the tumor in response to the drug, as defined above.
(§5) All individually weighed parameters were added together to generate the DSS. Overall DSS from 0 to 100 signify increasing efficacy in tumor kill relative to OBSC toxicity, while scores from 0 to −100 describe scenarios in which tumors thrive more effectively than OBSCs for a given treatment. Dose-response values were calculated via linear interpolation of raw data, not from best-fit curve equations.

[3] = system: U373WT (wild-type established GBM line); assay: Drug screening of U373WT tumor foci on OBSCs; details: U373 WT on OBSCs
Procedure: as §1, §2, §3, §4, §5

[4] = system: U373KO (RAD18 knockout of U373WT via CRISPR); assay: Drug screening of U373KO tumor foci on OBSCs; details: U373 KO on OBSCs
Procedure: as §1, §2, §3, §4, §5

[5] = system: GBM8 (high-passage patient-derived GBM line); assay: Drug screening of GBM8 tumor foci on OBSCs; details: GBM8 on OBSCs
Procedure: as §1, §2, §3, §4, §5

[6] = system: MS21 (low-passage patient-derived GBM line); assay: Drug screening of MS21 tumor foci on OBSCs; details: MS21 on OBSCs
Procedure: as §1, §2, §3, §4, §5

[7] = system: PDIPG (low-passage pediatric patient-derived line); assay: Drug screening of PDIPG tumor foci on OBSCs; details: PDIPG on OBSCs
Procedure: as §1, §2, §3, §4, §5

[8] = system: PIS patient tumor tissue (intracranial sarcoma); assay: Drug screening of uncultured patient tumor tissue PIS on OBSCs; details: PIS patient tissue; scale -100 to +100
Procedure: as §2
To engraft onto OBSCs, the cryopreserved/thawed or fresh brain tumor tissue was filtered through a 100 μm cell strainer. Each 50 mg of tissue was transfected with 1mL mcherry-FLuc Lentivirus at 1.5e7 vg/ml with 1μL polybrene for 4h at 37°C. After incubation, the brain tumor tissue was washed with PBS three times to remove the residual virus and reconstituted in PBS with a final volume of 150 μL. Then the tissue solution was engrafted atop OBSCs at ∼0.5 mg tissue in 3 μL of PBS on each hemisphere of the slice. The OBSC engrafted with patient tumor tissue was incubated at 37°C with 5% CO2 and 95% humidity. The BSM was changed after 24h and subsequently every 3 days. Tumor treatment studies were executed as described above for tumor lines. The viability of the patient tissue was measured by an AMI optical imaging system with the addition of 1.5 mg/mL luciferin underneath the culture insert.
as §3, §4, §5

[9] = area under the dose-response curve, trapezoidal rule
[10] = dose required to kill 10% of the tumor
[11] = dose required to kill 25% of the tumor
[12] = dose required to kill 50% of the tumor
[13] = dose required to kill 75% of the tumor
[14] = dose required to kill 90% of the tumor
[15] = dose required to kill 50% of the tumor, read-out: EC50
[16] = dose required to kill 90% of the tumor, read-out: EC90

## N.N.O=C([O-])C1(C(=O)[O-])CCC1.[Pt+2] [Carboplatin]
[1]
  Killing at highest dose: 1.00E+00 fraction of tumor population killed
[1]; [9]
  AUC: 1.89E+02
[1]; [10]
  EC10: 117 µM
[1]; [11]
  EC25: 119 µM
[1]; [12]
  EC50: 122 µM
[1]; [13]
  EC75: 125 µM
[1]; [14]
  EC90: 213 µM
[1]; slope through the EC50
  Slope: -8.00E-02
[2]
  Killing at highest dose: 1.00E+00 fraction of tumor population killed
[2]; [9]
  AUC: 1.22E+02
[2]; [10]
  EC10: 4.17 µM
[2]; [11]
  EC25: 14 µM
[2]; [12]
  EC50: 133 µM
[2]; [13]
  EC75: 193 µM
[2]; [14]
  EC90: 229 µM
[2]; slope through the EC50
  Slope: -4.20E-03
[3]
  Killing at highest dose: 1.00E+00 fraction of tumor population killed
[3]; [9]
  AUC: 3.11E+02
[3]; [10]
  EC10: 93.2 µM
[3]; [11]
  EC25: 103 µM
[3]; [12]
  EC50: 176 µM
[3]; [13]
  EC75: 250 µM
[3]; [14]
  EC90: 700 µM
[3]; slope through the EC50
  Slope: -3.40E-03
[4]
  Killing at highest dose: 9.99E-01 fraction of tumor population killed
[4]; [9]
  AUC: 1.92E+02
[4]; [10]
  EC10: 9.09 µM
[4]; [11]
  EC25: 125 µM
[4]; [12]
  EC50: 172 µM
[4]; [13]
  EC75: 219 µM
[4]; [14]
  EC90: 248 µM
[4]; slope through the EC50
  Slope: -5.29E-03
[5]
  Killing at highest dose: 1.00E+00 fraction of tumor population killed
[5]; [9]
  AUC: 1.03E+01
[5]; [10]
  EC10: 1.16 µM
[5]; [11]
  EC25: 2.91 µM
[5]; [15]
  EC50: 5.81 µM
[5]; [13]
  EC75: 8.72 µM
[5]; [16]
  EC90: 26 µM
[5]; slope through the EC50
  Slope: -8.60E-02
[6]
  Killing at highest dose: 1.00E+00 fraction of tumor population killed
[6]; [9]
  AUC: 1.47E+02
[6]; [10]
  EC10: 59.7 µM
[6]; [11]
  EC25: 71.8 µM
[6]; [15]
  EC50: 91.9 µM
[6]; [13]
  EC75: 157 µM
[6]; [16]
  EC90: 215 µM
[6]; slope through the EC50
  Slope: -1.24E-02
[7]
  Killing at highest dose: 1.00E+00 fraction of tumor population killed
[7]; [9]
  AUC: 1.79E+02
[7]; [10]
  EC10: 4.76 µM
[7]; [11]
  EC25: 20 µM
[7]; [15]
  EC50: 86.1 µM
[7]; [13]
  EC75: 211 µM
[7]; [16]
  EC90: 583 µM
[7]; slope through the EC50
  Slope: -3.59E-03
[8]
  DSS (drug sensitivity score): 88
